We go through six compounds from ChEMBL document CHEMBL4732271, “Novel Substituted Thiadiazoles as Splicing Modulators for Modulating Splicing of mRNA and Uses Thereof for Treating Diseases” (ACS Med Chem Lett, 2021).

Experiment [1] concerns the target SMN2 pre-mRNA. Description: Modulation of SMN2 mRNA D7 splicing in human spinal muscular atrophy patient fibroblasts incubated for 24 hrs by qPCR analysis. The experiment is classed as tissue-based.
Experiment [2] concerns the target SMN2 pre-mRNA. Description: Modulation of SMN2 mRNA FL splicing in human spinal muscular atrophy patient fibroblasts incubated for 24 hrs by qPCR analysis. The experiment is classed as tissue-based. (In general: In qPCR the cycle at which signal appears reflects the starting amount.)
The target in experiment [3] is SMN2 pre-mRNA. Description: Modulation of SMN2 mRNA FL splicing in human spinal muscular atrophy patient fibroblasts assessed as SMN2 protein potency incubated for 48 hrs by mesoscale discovery assay.

The IC50 is the concentration that gives 50% inhibition. Higher therefore signals weaker potency. The EC50 is the concentration needed to bring the measured effect to its halfway point. For `CN(c1nnc(-c2ccc(-c3cn[nH]c3)cc2O)s1)[C@@H]1C[C@H]2CC[C@H](N2)[C@@H]1F`, inhibition against SMN2 pre-mRNA [1] was half-maximal at 0.01 nM (IC50). Besides, the concentration for a half-maximal effect (EC50) on SMN2 pre-mRNA [2] and on SMN2 pre-mRNA [3] was 0.01 nM throughout.

`CN(c1nnc(-c2cc(F)c(-c3cnn(C)c3)cc2O)s1)[C@@H]1C[C@H]2CC[C@H](N2)[C@@H]1F` yielded an IC50 at SMN2 pre-mRNA [1] of 0.01 nM. The values for the EC50 on SMN2 pre-mRNA [2] and on SMN2 pre-mRNA [3] were 16 nM and 0.01 nM, respectively.

`CN(c1nnc(-c2ccc(-c3cnn(C)c3)cc2O)s1)[C@H]1C[C@@H]2CCC[C@@H](N2)[C@H]1F` gave an IC50 against SMN2 pre-mRNA [1] of 0.01 nM. In addition, the EC50 at SMN2 pre-mRNA [2] turned out to be 16 nM; on SMN2 pre-mRNA [3], 0.01 nM.

Turning to `CN(c1nnc(-c2ccc(-c3cnn(C)c3)cc2O)s1)[C@@H]1C[C@H]2CC[C@H](N2)[C@@H]1F`, inhibition at SMN2 pre-mRNA [1] was half-maximal at 0.01 nM (IC50). The EC50 at SMN2 pre-mRNA [2] was found to be 16 nM; on SMN2 pre-mRNA [3] it was 0.01 nM.

At SMN2 pre-mRNA [1], `COc1cc(-c2ccc(-c3nnc(N(C4CC4)[C@@H]4C[C@H]5CC[C@H](N5)C4F)s3)c(O)c2)cc(F)n1` (stereo partly drawn) registered a concentration for half-maximal inhibition (IC50) of 0.01 nM. Besides, the EC50 at SMN2 pre-mRNA [2] is 16 nM; on SMN2 pre-mRNA [3], 0.01 nM.

On to `CN(c1nnc(-c2ccc(-c3cnn(CF)c3)cc2O)s1)[C@@H]1C[C@H]2CC[C@H](N2)[C@@H]1F`, for which the IC50 on SMN2 pre-mRNA [1] was found to be 16 nM. The EC50 on SMN2 pre-mRNA [2] was determined as 16 nM; on SMN2 pre-mRNA [3], 0.01 nM.
